Literature values in PMC4232468 (Nature chemical biology, 2014).

Cc1ccc2c(=O)c3cccc(CC(=O)O)c3oc2c1C [DMXAA, 5,6-dimethylxanthenone-4-acetic acid]
activation of mouse STING (mouse STING (mSTING)): activates mouse STING (mSTING) | activation of human STING (human STING (hSTING)): not human STING (hSTING)
